Reference: the NIST ThermoML archive (doi:10.1021/acs.jced.5b00813)

Key:
[1] = xn = mol fraction of the nth substance listed; conditions: 298.15 K, 100 kPa, Liquid, Vibrating tube method
[2] = excess molar enthalpy (molar enthalpy of mixing); xn = mol fraction of the nth substance listed; conditions: 298.15 K, 100 kPa, Liquid, Calvet calorimetry
[3] = 298.15 K; 100 kPa; Liquid; Vibrating tube method
[4] = refractive index (Na D-line) (dimensionless); conditions: 298.15 K; 101.33 kPa; Liquid; Standard Abbe refractometry

CCCCC(=O)OC [methyl pentanoate] + CCCCCCCC
Conditions | excess molar enthalpy [kcal/mol] | mass density [kg/m3]
[1], x2 = 0 | – | 884.84
[1], x2 = 0.0514 | – | 872.35
[1], x2 = 0.1005 | – | 860.71
[1], x2 = 0.161 | – | 846.85
[1], x2 = 0.2134 | – | 835.46
[1], x2 = 0.2601 | – | 825.47
[1], x2 = 0.3084 | – | 815.53
[1], x2 = 0.3625 | – | 804.47
[1], x2 = 0.4427 | – | 788.93
[1], x2 = 0.4558 | – | 786.45
[1], x2 = 0.5104 | – | 776.34
[1], x2 = 0.5504 | – | 769.1
[1], x2 = 0.6116 | – | 758.45
[1], x2 = 0.6541 | – | 751.22
[1], x2 = 0.7081 | – | 742.25
[1], x2 = 0.7535 | – | 734.86
[1], x2 = 0.8013 | – | 727.38
[1], x2 = 0.8518 | – | 719.71
[1], x2 = 0.9059 | – | 711.73
[1], x2 = 0.9521 | – | 705.03
[2], x2 = 0.0427 | 0.0387 | –
[2], x2 = 0.0951 | 0.0805 | –
[2], x2 = 0.1523 | 0.122 | –
[2], x2 = 0.2098 | 0.158 | –
[2], x2 = 0.2677 | 0.187 | –
[2], x2 = 0.3234 | 0.211 | –
[2], x2 = 0.377 | 0.228 | –
[2], x2 = 0.4266 | 0.24 | –
[2], x2 = 0.4619 | 0.249 | –
[2], x2 = 0.4695 | 0.249 | –
[2], x2 = 0.5113 | 0.252 | –
[2], x2 = 0.5126 | 0.25 | –
[2], x2 = 0.5411 | 0.249 | –
[2], x2 = 0.5701 | 0.248 | –
[2], x2 = 0.6364 | 0.236 | –
[2], x2 = 0.709 | 0.212 | –
[2], x2 = 0.7745 | 0.181 | –
[2], x2 = 0.8541 | 0.131 | –
[2], x2 = 0.9325 | 0.0547 | –

CCCCCCCC [octane] + CCCC(=O)OC
Conditions | mass density [kg/m3]
[1], x1 = 1 | 698.58

CC(C)CC(C)(C)C [2,2,4-trimethylpentane] + CCCC(=O)OC
Conditions | mass density [kg/m3]
[1], x1 = 1 | 687.75

CCCCC(=O)OC [methyl pentanoate]
Conditions | mass density [kg/m3] | refractive index
[3] | 884.84 | –
[4] | – | 1.3968

CCCCCCCC [octane] + COC(C)=O
Conditions | mass density [kg/m3]
[1], x1 = 1 | 698.58

CCCC(=O)OC [methyl butanoate] + CC(C)CC(C)(C)C
Conditions | excess molar enthalpy [kcal/mol] | mass density [kg/m3]
[1], x2 = 0 | – | 892.34
[1], x2 = 0.0344 | – | 881.71
[1], x2 = 0.0633 | – | 873.2
[1], x2 = 0.1096 | – | 860.1
[1], x2 = 0.1334 | – | 853.55
[1], x2 = 0.1539 | – | 848
[1], x2 = 0.2013 | – | 835.7
[1], x2 = 0.2471 | – | 824.1
[1], x2 = 0.2981 | – | 811.9
[1], x2 = 0.3973 | – | 789.58
[1], x2 = 0.441 | – | 780.3
[1], x2 = 0.5431 | – | 760
[1], x2 = 0.5901 | – | 751.22
[1], x2 = 0.6801 | – | 735.3
[1], x2 = 0.7243 | – | 727.9
[1], x2 = 0.8239 | – | 712.2
[1], x2 = 0.8708 | – | 705.2
[1], x2 = 0.8863 | – | 703.02
[1], x2 = 0.9158 | – | 698.8
[1], x2 = 0.9816 | – | 689.84
[2], x2 = 0.0389 | 0.0385 | –
[2], x2 = 0.0858 | 0.0793 | –
[2], x2 = 0.1367 | 0.119 | –
[2], x2 = 0.1916 | 0.156 | –
[2], x2 = 0.2446 | 0.186 | –
[2], x2 = 0.2982 | 0.211 | –
[2], x2 = 0.3481 | 0.23 | –
[2], x2 = 0.3959 | 0.243 | –
[2], x2 = 0.4256 | 0.251 | –
[2], x2 = 0.4407 | 0.252 | –
[2], x2 = 0.4767 | 0.254 | –
[2], x2 = 0.5375 | 0.255 | –
[2], x2 = 0.6052 | 0.246 | –
[2], x2 = 0.6813 | 0.225 | –
[2], x2 = 0.7629 | 0.189 | –
[2], x2 = 0.8494 | 0.135 | –
[2], x2 = 0.9353 | 0.0722 | –
